Like-named read-outs stand apart in the source and are kept apart here.
Assays:
AKT = conditions: 10 nM DHT
Method: DJ-1 likely serves as a transcriptional co-activator of androgen receptor^50,51. To determine whether androgen receptor and androgen activate the AKT pathway in human dopaminergic cell lines, native SH-SY5Y cells were treated with 10 nM of […], and levels of phosphorylated AKT was assayed by Western blot. […] The role of androgen receptor signaling in the activation of AKT was also tested in SH-SY5Y cells that were transiently transfected with human androgen receptor then treated with […].
(§1) Human CHP-212 cells were purchased from ATCC and maintained in cell culture media, EMEM/F-12 (50%/50%) containing 10% FBS and antibiotics. Native SH-SY5Y cells were maintained in DMEM supplemented with 10% FBS and antibiotics. For immunofluorescence, cells were grown on coverslips. […] Rat tyrosine hydroxylase-luc reporter plasmid (Kim et al Biochem Biophys Res Commun. 2003 Dec. 26; 312(4):950-7) and the pTK-Renilla luciferase plasmid for transfection control were obtained from Promega (Madison, Wis.). Human androgen receptor expression construct PCMV-Flag-AR was kindly provided by Dr. E. Wilson^75. H2O2 and DHT were purchased from Sigma (St. Louis, Mo.).
(§2) The procedures for western blotting and immunoprecipitation were described previously^48. […]

CHP-212 cells = conditions: DJ-1 siRNA, 10 nM DHT, 300 μM H2O2
Method: Cells were re-plated and pretreated with 10 nM dihydroxytestosterone or vehicle control (ethanol) for twenty-four hours, followed by H2O2 (300 μM) treatment plus 10 nM dihydroxytestosterone or vehicle control for additional 24 hours. Cell toxicity was evaluated by MTT assay. Values are the mean±s.e.m. n=3 experiments; *: P=0.0068 (t-test).
To test whether dihydroxytestosterone can reverse this increased susceptibility, endogenous DJ-1 expression in CHP-212 cells was inhibited using DJ-1-specific siRNA. […] The siRNA treated cells were then further treated with 10 nM of dihydroxytestosterone in the presence or absence of 300 μM of H2O2.
CHP-212 cells or SH-SY5Y cells were plated in six-well culture dishes and transfected with 100 nM of siRNA against human DJ-1 constructs (SMARTpool reagent, Dharmacon, Lafayette, Colo.) or non-specific control siRNA constructs (siControl non-targeting pool, Dharmacon). […] Cells were harvested forty-eight hours post-transfection for RNA extraction or at Day 1,2, or 4 for Western blot or re-plated in 96 well plate for MTS assay at 48 hrs post-transfection.

[1] = most potent of the male steroid hormones; cited from earlier work
tyrosine hydroxylase [2] = conditions: untransfected CHP-212 cells, DHT 0-1000 nM, forty-eight hours
Method: as §1, §2

tyrosine hydroxylase [3] = conditions: CHP-212 cells pre-transfected with DJ-1-specific siRNA, increasing amount of DHT for forty-eight hours
Method: The procedures for western blotting and immunoprecipitation were described previously^48. For DJ-1 immunoprecipitation, cells were lysed in denaturing RIPA-DOC buffer (50 mm Tris-HCl buffer (pH 8.0), containing 150 mM NaCl, 1% Triton X-100, 0.1% SDS, 1% sodium deoxycholate, 10 mM EDTA and a protease inhibitor cocktail (1× protease cocktail, Roche (Indianapolis, Ind.). For endogenous DJ-1 and PSF co-immunoprecipitation, cells were lysed in non-denaturing lysis buffer containing 1% Triton-X100. […] Antibody used for immunoprecipitation: rabbit polyclonal anti-DJ-15. Antibodies for western blotting include: a mouse monoclonal anti-tyrosine hydroxylase (Sigma); monoclonal (Stressgen, San Diego, Calif.) and polyclonal anti-DJ-1; a goat anti-β-actin (Santa Cruz Biotechnology, Santa Cruz, Calif.); a rabbit polyclonal anti-androgen receptor (Upstate, Charlottesville, Va.); a rabbit polyclonal anti-AKT and a mouse monoclonal anti-Phospho-AKT (Cell signaling, Beverly, Mass.). Antibodies used for immunoprecipitation included a mouse monoclonal anti-PSF (Sigma) and a rabbit polyclonal anti-DJ-1^18.

Method for SH-SY5Y cells: FIG. 8A is a graph that quantifies relative cell viability in SH-SY5Y cells that were pretreated with dihydroxytestosterone (DHT) (1 or 10 nM) or vehicle control (Ethanol) for twenty-four hours, then were subjected to H2O2 (500 μM) treatment plus dihydroxytestosterone (1 or 10 nM) or vehicle control for an additional twenty-four hours. Cell toxicity was evaluated using a 3-(4,5-dimethylthiazol-2-yl)-2,5-diphenyltetrazolium bromide (MTT) assay. […] Cells were re-plated and pretreated with 10 nM dihydroxytestosterone or vehicle control (ethanol) for twenty-four hours, followed by H2O2 (300 μM) treatment plus 10 nM dihydroxytestosterone or vehicle control for additional 24 hours. Cell toxicity was evaluated by MTT assay. Values are the mean±s.e.m. n=3 experiments; *: P=0.0068 (t-test).
To evaluate whether dihydroxytestosterone similarly protects against oxidative stress-induced cell death in human dopaminergic neuroblastoma cells, SH-SY5Y cells were treated with increasing amount of dihydroxytestosterone in the presence or absence of 500 μM of hydrogen peroxide (H2O2). […] The siRNA treated cells were then further treated with 10 nM of dihydroxytestosterone in the presence or absence of 300 μM of H2O2.

SMILES: C[C@]12CCC(=O)C[C@@H]1CC[C@@H]1[C@@H]2CC[C@]2(C)[C@@H](O)CC[C@@H]12 [dihydroxytestosterone, dihydrotestosterone]
- time of peak level of phosphorylated AKT after treatment (AKT; SH-SY5Y cells transiently transfected with Flag-AR): 15 min
- time of peak level of phosphorylated AKT after treatment (AKT; native SH-SY5Y cells): ninety
- AKT phosphorylation (AKT; native SH-SY5Y cells, 5-90 minutes, no increase of total AKT): rapid phosphorylation of AKT
- oxidative stress-induced cell death in DJ-1-specific siRNA treated cells (CHP-212 cells): significantly reduced oxidative stress-induced cell death
- cell death induced by oxidative stress (SH-SY5Y cells; DHT 1 or 10 nM pretreatment 24 h, then 500 μM H2O2 plus DHT 24 h): significantly blocked cell death
- effect on cell viability in the absence of H2O2 (SH-SY5Y cells; DHT 1 or 10 nM, no H2O2): subtle effect
- activity relative to testosterone [1]: 10 times
- tyrosine hydroxylase protein levels (tyrosine hydroxylase [2]): dose-dependent increase
- rescue of tyrosine hydroxylase expression after DJ-1 inactivation (tyrosine hydroxylase [3]): fully rescued

Reference: patent US20090325911A1, “Use of Androgens for the Treatment of Parkinson's Disease” (CARITAS ST. ELIZABETH MEDICAL CENTER OF BOSTON, INC., priority 2005, published 2009)
